Reference: article PMC7782793, “Hydroxamic acid-modified peptide microarrays for profiling isozyme-selective interactions and inhibition of histone deacetylases” (Nature Communications, 2021)
Where “and” joins values, the source holds several entries; their conditions need not be identical. Equal values may be shown once. Marks after values point to notes of the source that are not given here. Non-standard residues stand in square brackets, D forms with d. Residues, ends and D or L forms follow the SMILES beside them. *: point of attachment. Asu = N[C@@H](CCCCCC(=O)O)C(=O)O; NHOH = ON*

Assays:
[1] = target: T1, HDAC8 (Homo sapiens, UniProt Q9BY41); assay: HDAC inhibition assay (fluorogenic, Ac-Leu-Gly-Lys(Tfa)-AMC); format: biochemical; conditions: for HDAC8 dose-response data (relative enzyme activity, replicate values), Fig. 6 + S. Fig. 10: two replicate columns per inhibitor; for HDAC8 dose-response data (relative enzyme activity), Fig. 6 + S. Fig. 10: duplicate columns
T1 construct: HDAC8 (full length, C-terminal His tag, BPS Bioscience, cat. #: 50008); purchased BPS Bioscience 50008
T1 sequence (Q9BY41 1-377): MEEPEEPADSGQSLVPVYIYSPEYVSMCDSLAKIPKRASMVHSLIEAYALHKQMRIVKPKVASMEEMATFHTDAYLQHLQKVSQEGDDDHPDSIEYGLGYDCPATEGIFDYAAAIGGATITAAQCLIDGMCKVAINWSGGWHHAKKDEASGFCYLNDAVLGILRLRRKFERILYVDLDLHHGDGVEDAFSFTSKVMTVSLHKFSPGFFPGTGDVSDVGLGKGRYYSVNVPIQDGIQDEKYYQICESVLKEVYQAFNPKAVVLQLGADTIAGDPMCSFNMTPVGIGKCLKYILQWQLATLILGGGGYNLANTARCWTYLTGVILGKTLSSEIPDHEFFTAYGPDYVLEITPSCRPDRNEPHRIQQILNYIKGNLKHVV

[2] = target: T2, HDAC3/NCoR2 (Homo sapiens, UniProt O15379); assay: HDAC inhibition assay (fluorogenic, Ac-Leu-Gly-Lys(Ac)-AMC); format: biochemical; conditions: for HDAC3 dose-response data (relative enzyme activity), Fig. 6 + S. Fig. 10: duplicate columns
T2 construct: HDAC3/NCoR2 (full length, C-terminal His tag, NCoR2 N-terminal GST tag); purchased BPS Bioscience 50003

[3] = target: T3, HDAC1 (Homo sapiens, UniProt Q13547); assay: as above; format: biochemical; conditions: for HDAC1 dose-response data (relative enzyme activity), Fig. 6 + S. Fig. 10: duplicate columns
T3 construct: HDAC1 (full length, C-terminal His tag, C-terminal FLAG tag, BPS Bioscience, cat. #: 50051); FLAG (C); purchased BPS Bioscience 50051

[4] = target: T1, HDAC8; assay: Recombinant HDAC µSPOT microarray binding assay
[5] = target: T4, HDAC2 (Homo sapiens, UniProt Q92769); assay: HDAC inhibition assay (fluorogenic, Ac-Leu-Gly-Lys(Ac)-AMC); format: biochemical; conditions: for HDAC2 dose-response data (relative enzyme activity), Fig. 6 + S. Fig. 10: duplicate columns
T4 construct: HDAC2 (full length, C-terminal His tag, BPS Bioscience, cat. #: 50002); purchased BPS Bioscience 50002

[6] = target: T2, HDAC3/NCoR2; assay: Recombinant HDAC µSPOT microarray binding assay
Experimental: (§1) Experiments were performed twice, data were obtained with Array Analyze software (Active Motif), and data analysis and representation were performed with the GraphPad Prism 7 software. Outliers were curated manually and data were fitted to nonlinear regression [log(agonist) vs. response—variable slope (four parameters)]. […] Non-sigmoidal curves were denoted as not determined (N.D.) The pEC50 values were determined as the concentration of HDAC enzyme required for half-maximal binding signal.

[7] = target: T5, HDAC6 (Homo sapiens, UniProt Q9UBN7); assay: HDAC inhibition assay (fluorogenic, Ac-Leu-Gly-Lys(Ac)-AMC); format: biochemical; conditions: HDAC6, replicates
T5 construct: HDAC6 (full length, BPS Bioscience, cat. #: 50056); purchased BPS Bioscience 50056
T5 sequence (Q9UBN7 1-1215): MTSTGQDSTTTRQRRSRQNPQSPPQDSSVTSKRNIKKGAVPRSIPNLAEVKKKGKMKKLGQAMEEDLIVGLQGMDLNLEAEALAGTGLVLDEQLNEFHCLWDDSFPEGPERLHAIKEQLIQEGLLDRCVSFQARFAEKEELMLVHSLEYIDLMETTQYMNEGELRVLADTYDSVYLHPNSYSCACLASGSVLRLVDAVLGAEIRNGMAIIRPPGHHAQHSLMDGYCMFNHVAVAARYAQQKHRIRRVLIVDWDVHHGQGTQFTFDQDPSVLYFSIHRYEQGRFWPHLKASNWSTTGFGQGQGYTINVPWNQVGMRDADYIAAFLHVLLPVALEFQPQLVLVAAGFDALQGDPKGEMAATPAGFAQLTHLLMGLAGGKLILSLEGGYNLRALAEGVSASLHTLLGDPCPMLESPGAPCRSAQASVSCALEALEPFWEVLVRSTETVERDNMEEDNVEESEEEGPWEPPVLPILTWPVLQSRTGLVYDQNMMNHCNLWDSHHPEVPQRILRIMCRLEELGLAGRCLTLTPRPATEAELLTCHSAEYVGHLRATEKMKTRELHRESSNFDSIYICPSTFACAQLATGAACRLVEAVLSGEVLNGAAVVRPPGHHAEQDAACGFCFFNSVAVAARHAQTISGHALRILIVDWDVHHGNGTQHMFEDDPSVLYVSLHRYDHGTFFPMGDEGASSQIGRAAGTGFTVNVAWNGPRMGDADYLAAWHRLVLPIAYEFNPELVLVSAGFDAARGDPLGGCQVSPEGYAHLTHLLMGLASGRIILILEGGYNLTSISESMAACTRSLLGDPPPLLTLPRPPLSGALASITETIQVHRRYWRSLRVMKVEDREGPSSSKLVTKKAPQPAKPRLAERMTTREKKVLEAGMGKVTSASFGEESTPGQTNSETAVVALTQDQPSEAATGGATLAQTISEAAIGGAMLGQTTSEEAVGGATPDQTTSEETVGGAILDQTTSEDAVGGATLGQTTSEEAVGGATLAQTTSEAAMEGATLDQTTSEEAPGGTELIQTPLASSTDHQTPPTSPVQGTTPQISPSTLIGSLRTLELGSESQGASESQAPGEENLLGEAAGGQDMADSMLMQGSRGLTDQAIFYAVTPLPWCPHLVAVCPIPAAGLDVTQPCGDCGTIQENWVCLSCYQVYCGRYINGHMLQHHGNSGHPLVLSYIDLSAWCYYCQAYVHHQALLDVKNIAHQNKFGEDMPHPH

[8] = target: T4, HDAC2; assay: Recombinant HDAC µSPOT microarray binding assay
Experimental: as §1

[9] = target: T3, HDAC1; assay: Recombinant HDAC µSPOT microarray binding assay
[10] = log[inhibitor(M)] -10,5850266520292*, whole line marked with asterisks
[11] = resynthesized peptides, from Ki

T2 sequence (O15379 whole entry): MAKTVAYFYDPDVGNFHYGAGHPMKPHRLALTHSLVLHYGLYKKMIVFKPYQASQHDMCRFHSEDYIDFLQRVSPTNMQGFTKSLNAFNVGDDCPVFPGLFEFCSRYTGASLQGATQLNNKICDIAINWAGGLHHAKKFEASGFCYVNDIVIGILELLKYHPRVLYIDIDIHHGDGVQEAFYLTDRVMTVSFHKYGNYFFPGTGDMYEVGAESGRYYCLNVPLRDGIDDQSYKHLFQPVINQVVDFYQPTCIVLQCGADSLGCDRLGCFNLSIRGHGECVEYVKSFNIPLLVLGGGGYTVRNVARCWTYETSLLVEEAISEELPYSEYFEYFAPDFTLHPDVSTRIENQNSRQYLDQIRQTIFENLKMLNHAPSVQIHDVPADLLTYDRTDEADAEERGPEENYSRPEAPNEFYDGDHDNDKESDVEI
T2 sequence (Q9Y618 389-480 partner limits assumed): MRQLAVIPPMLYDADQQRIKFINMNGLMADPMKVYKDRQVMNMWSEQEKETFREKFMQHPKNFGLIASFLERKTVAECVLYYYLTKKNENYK
T3 sequence (Q13547 whole entry): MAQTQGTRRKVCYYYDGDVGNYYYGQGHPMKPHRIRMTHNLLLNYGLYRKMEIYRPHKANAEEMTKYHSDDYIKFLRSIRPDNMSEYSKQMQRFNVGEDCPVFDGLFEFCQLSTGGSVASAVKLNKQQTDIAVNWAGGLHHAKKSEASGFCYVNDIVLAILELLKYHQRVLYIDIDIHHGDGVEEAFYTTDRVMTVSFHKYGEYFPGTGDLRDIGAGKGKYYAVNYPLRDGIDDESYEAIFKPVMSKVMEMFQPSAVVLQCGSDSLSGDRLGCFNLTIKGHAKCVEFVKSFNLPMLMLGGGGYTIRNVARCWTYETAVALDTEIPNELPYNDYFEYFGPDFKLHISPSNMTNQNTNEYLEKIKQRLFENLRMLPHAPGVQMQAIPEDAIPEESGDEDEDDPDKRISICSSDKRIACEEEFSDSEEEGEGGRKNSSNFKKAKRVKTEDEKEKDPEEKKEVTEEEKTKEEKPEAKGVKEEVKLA
T4 sequence (Q92769 whole entry): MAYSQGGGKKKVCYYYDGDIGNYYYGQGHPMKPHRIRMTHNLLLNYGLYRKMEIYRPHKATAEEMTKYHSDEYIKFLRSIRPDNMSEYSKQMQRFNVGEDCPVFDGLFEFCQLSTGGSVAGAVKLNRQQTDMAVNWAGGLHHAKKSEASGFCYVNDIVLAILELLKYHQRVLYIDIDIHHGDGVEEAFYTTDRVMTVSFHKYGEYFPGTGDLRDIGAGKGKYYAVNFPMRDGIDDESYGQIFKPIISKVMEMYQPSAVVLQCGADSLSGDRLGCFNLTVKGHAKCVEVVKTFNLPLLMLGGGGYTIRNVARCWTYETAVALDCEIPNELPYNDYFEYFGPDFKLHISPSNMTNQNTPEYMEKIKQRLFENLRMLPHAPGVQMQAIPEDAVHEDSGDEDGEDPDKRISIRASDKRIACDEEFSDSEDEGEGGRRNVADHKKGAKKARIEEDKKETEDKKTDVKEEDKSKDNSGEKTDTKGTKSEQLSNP

CC[C@H](C)[C@H](NC(=O)[C@@H](NC(=O)[C@H](CO)NC(=O)[C@H](CCCNC(=N)N)NC(=O)[C@H](CCCCCC(=O)NO)NC(=O)[C@H](CC(N)=O)NC(=O)[C@H](Cc1ccc(O)cc1)NC(=O)[C@H](Cc1c[nH]cn1)NC(=O)[C@H](C)NC(=O)[C@H](CC(C)C)NC(=O)[C@H](CCCNC(=N)N)NC(=O)[C@H](CO)NC(=O)[C@H](C)NC(=O)[C@H](CCC(=O)O)NC(C)=O)[C@@H](C)O)C(=O)N[C@H](C(=O)N[C@@H](CO)C(=O)N[C@@H](Cc1c[nH]c2ccccc12)C(N)=O)[C@@H](C)O [11a] (Ac-EASRLAHYN[Asu](NHOH)RSTITSW-NH2)
Ki [1]: 216 ± 1 nM
HDAC8 dose-response data (relative enzyme activity, replicate values), Fig. 6 + S. Fig. 10 ([1]; Inhibitor conc [M] -8.49485 (log)): 96.1111 and 96.5276
HDAC8 dose-response data (relative enzyme activity, replicate values), Fig. 6 + S. Fig. 10 ([1]; Inhibitor conc [M] -9.19382 (log)): 96.7641 and 98.5453
HDAC8 dose-response data (relative enzyme activity, replicate values), Fig. 6 + S. Fig. 10 ([1]; Inhibitor conc [M] given as -7.09691 (log)): 74.7826 and 76.7416
HDAC8 dose-response data (relative enzyme activity, replicate values), Fig. 6 + S. Fig. 10 ([1]; Inhibitor conc [M] given as -7.79588 (log)): 92.4501 and 93.9678
HDAC8 dose-response data (relative enzyme activity, replicate values), Fig. 6 + S. Fig. 10 ([1]; Inhibitor conc [M] given as -9.89279 (log)): 96.0276 and 96.961
HDAC8 dose-response data (relative enzyme activity, replicate values), Fig. 6 + S. Fig. 10 ([1]; Inhibitor conc [M] given as -10.585 (log)): 97,4443859* and 98,1506198*
HDAC8 dose-response data (relative enzyme activity), Fig. 6 + S. Fig. 10 ([1]; Inhibitor conc [M] -4.30103): 1.735 and 1.62
HDAC8 dose-response data (relative enzyme activity), Fig. 6 + S. Fig. 10 ([1]; Inhibitor conc [M] -5): 6.862 and 6.863
HDAC8 dose-response data (relative enzyme activity), Fig. 6 + S. Fig. 10 ([1]; Inhibitor conc [M] -5.69897): 19.3274 and 19.565
HDAC8 dose-response data (relative enzyme activity), Fig. 6 + S. Fig. 10 ([1]; Inhibitor conc [M] -6.39794): 44.2904 and 45.2063
Ki [2]: 3.45 ± 0.02 nM
HDAC3 dose-response data (relative enzyme activity), Fig. 6 + S. Fig. 10 ([2]; log[inhibitor(M)] -4.30103): 0.8032 and 0.6973
HDAC3 dose-response data (relative enzyme activity), Fig. 6 + S. Fig. 10 ([2]; log[inhibitor(M)] -5): 0.9208 and 1.031
HDAC3 dose-response data (relative enzyme activity), Fig. 6 + S. Fig. 10 ([2]; log[inhibitor(M)] -5.69897): 3.115 and 3.491
HDAC3 dose-response data (relative enzyme activity), Fig. 6 + S. Fig. 10 ([2]; log[inhibitor(M)] -6.39794): 8.97 and 10.4813
HDAC3 dose-response data (relative enzyme activity), Fig. 6 + S. Fig. 10 ([2]; log[inhibitor(M)] -7.09691): 21.4302 and 25.3963
HDAC3 dose-response data (relative enzyme activity), Fig. 6 + S. Fig. 10 ([2]; log[inhibitor(M)] -7.79588): 44.8111 and 52.4153
HDAC3 dose-response data (relative enzyme activity), Fig. 6 + S. Fig. 10 ([2]; log[inhibitor(M)] -8.49485): 70.9236 and 81.6314
HDAC3 dose-response data (relative enzyme activity), Fig. 6 + S. Fig. 10 ([2]; log[inhibitor(M)] -9.19382): 91.8976 and 96.1605
HDAC3 dose-response data (relative enzyme activity), Fig. 6 + S. Fig. 10 ([2]; log[inhibitor(M)] -9.89279): 95.3177 and 97.0902
HDAC3 dose-response data (relative enzyme activity), Fig. 6 + S. Fig. 10 [2, 10]: 96,0565351* and 98,690933*
selectivity for HDAC3 vs. HDAC8 [2, 11]: 63 fold and > 60 fold
selectivity for HDAC3 vs. HDACs 1 and 2 [2, 11]: 4 fold and ~ 4 fold
Ki [3]: 13.1 ± 0.1 nM
HDAC1 dose-response data (relative enzyme activity), Fig. 6 + S. Fig. 10 ([3]; log[inhibitor(M)] -5.69897): 4.17 and 5.0607
HDAC1 dose-response data (relative enzyme activity), Fig. 6 + S. Fig. 10 ([3]; log[inhibitor(M)] -6.39794): 14.283 and 18.2541
HDAC1 dose-response data (relative enzyme activity), Fig. 6 + S. Fig. 10 ([3]; log[inhibitor(M)] -7.09691): 37.8888 and 46.2715
HDAC1 dose-response data (relative enzyme activity), Fig. 6 + S. Fig. 10 ([3]; log[inhibitor(M)] -7.79588): 70.7486 and 79.6987
HDAC1 dose-response data (relative enzyme activity), Fig. 6 + S. Fig. 10 ([3]; log[inhibitor(M)] -8.49485): 87.0411 and 94.7749
HDAC1 dose-response data (relative enzyme activity), Fig. 6 + S. Fig. 10 ([3]; log[inhibitor(M)] -9.19382): 97.6689 and 100.068
HDAC1 dose-response data (relative enzyme activity), Fig. 6 + S. Fig. 10 ([3]; log[inhibitor(M)] -9.89279): 97.248 and 100.059
HDAC1 dose-response data (relative enzyme activity), Fig. 6 + S. Fig. 10 [3, 10]: 97,6864843* and 100,018018*
EC50 [4]: > 25.1 nM
HDAC2 dose-response data (relative enzyme activity), Fig. 6 + S. Fig. 10 ([5]; log[inhibitor(M)] -5): 1.895 and 2.051
HDAC2 dose-response data (relative enzyme activity), Fig. 6 + S. Fig. 10 ([5]; log[inhibitor(M)] -5.69897): 7.362 and 7.275
HDAC2 dose-response data (relative enzyme activity), Fig. 6 + S. Fig. 10 ([5]; log[inhibitor(M)] -7.79588): 79.8909 and 86.975
HDAC2 dose-response data (relative enzyme activity), Fig. 6 + S. Fig. 10 [5, 10]: 93,4642959* and 101,701404*
Ki ([5]; resynthesized peptide in solution, Cheng-Prusoff, n = 2): 13.8 ± 0.1 nM
EC50 [6]: 2.82 nM
residual enzymatic activity relative to control wells ([7]; log[inhibitor(M)] -4.30103): 2.583 and 1.686
residual enzymatic activity relative to control wells ([7]; log[inhibitor(M)] -5): 3.305 and 1.741
residual enzymatic activity relative to control wells ([7]; log[inhibitor(M)] -5.69897): 5.202 and 4.016
residual enzymatic activity relative to control wells ([7]; log[inhibitor(M)] -6.39794): 10.5662 and 11.8653
residual enzymatic activity relative to control wells ([7]; log[inhibitor(M)] -7.09691): 30.8137 and 34.4652
residual enzymatic activity relative to control wells ([7]; log[inhibitor(M)] -7.79588): 67.8407 and 69.7758
residual enzymatic activity relative to control wells ([7]; log[inhibitor(M)] -8.49485): 85.433 and 85.1351
residual enzymatic activity relative to control wells ([7]; log[inhibitor(M)] -9.19382): 83.1934 and 87.9013
residual enzymatic activity relative to control wells ([7]; log[inhibitor(M)] -9.89279): 78.0457 and 86.7533
residual enzymatic activity relative to control wells ([7]; log[inhibitor(M)] -10.585): 79.87 and 88.4822
EC50 [8]: > 25.1 nM
EC50 [9]: > 25.1 nM
